{"source": "patent US20140349340A1", "about": "“MBTH-LIKE PROTEINS IN THE PRODUCTION OF SEMI SYNTHETIC ANTIBIOTICS” (DSM SINOCHEM PHARMACEUTICALS NETHERLANDS B.V., priority 2012, published 2014)", "format_in_all_cases": "biochemical", "key": {"[1]": {"test": "PPi release assay, adenylation activity with D-phenylglycine", "conditions": "substrate D-PG 1 mM", "source_text": "(§1) These assays use inorganic pyrophosphatases to convert PPi produced during aminoacyl-AMP formation to orthophosphate (Pi). To measure Pi concentrations some of these assays use molybdate/malachite green reagent for colorimetric detection (McQuade et al. 2008) or, as used in the context of the present invention, a shift in absorbance maximum by conversion of 7-methyl-6-thioguanosine (MESG) by purine nucleoside phosphorylase (Ehmann D. E. et al. (Proc. Natl. Acad. Sci. (2000) 97, 2509-2514) or Daniel & Aldrich (Anal. Biochem. (2010) 404, 56-63)).\n(§2) To determine the adenylation activity of the adenylation domains, the Enzchek® pyrophosphate assay kit (Life Technologies) was used as described by Ehmann D. E. et al. (Proc Nat Acad Science (2000) 97, 2509-2514) with small modifications. The reactions were performed 96 wells UV/Vis transparent plates (BD Falcon). The reaction mixture comprises 50 mM HEPES pH 8.0, 10 mM MgCl2, 5 mM ATP, 75 mM DTT, 0.03 U Inorganic Pyrophosphatase (IP), 1 U Purine Nucleoside Phosphorylase (PNP) and 0.2 mM MESG in a volume of 70 μl. Next 20 μl (around 0.5-2 μM final concentration) of purified A(T) domain, with or without co-purification of the MbtH like helper protein was added and the reaction was pre-incubated for 15 minutes at RT to reduce contaminating Pi. Following the pre-incubation, 10 μl of a 10 mM or 1 mM solution of the appropriate amino acid depending on the performed specificity determination was added to initiate the adenylation reaction and the absorbance at 360 nm was measured using a TECAN I Control spectrophotometer. Absorbance measurements were made every 5 to 10 min over a period of up to 240 min. A reaction with addition of 10 μl MilliQ water instead was used to determine and subtract the background absorbance. As substrates the following amino acids were used: D- or L-phenylalanine, D- or L-hydroxyphenylglycine, D- or L-phenylglycine, L-tryptophan, L-valine, L-cysteine, and L-leucine."}, "[2]": {"test": "PPi release assay, adenylation activity with L-hydroxyphenylglycine", "conditions": "for adenylation activity (absorption 360 nm, PPi release assay): substrate L-hydroxyphenylglycine", "source_text": "as §1, §2"}, "[3]": {"test": "PPi release assay, adenylation activity with L-phenylalanine", "conditions": "substrate L-phenylalanine", "source_text": "as §1, §2"}, "[4]": {"test": "PPi release assay, adenylation activity with D-phenylalanine", "conditions": "substrate D-phenylalanine", "source_text": "as §1, §2"}, "[5]": {"test": "PPi release assay, adenylation activity with D-hydroxyphenylglycine", "conditions": "for adenylation activity (absorption 360 nm, PPi release assay): substrate D-hydroxyphenylglycine", "source_text": "as §1, §2"}, "[6]": {"test": "PPi release assay, adenylation activity with L-phenylglycine", "conditions": "substrate L-PG 1 mM", "source_text": "as §1, §2"}, "[7]": {"conditions": "co-purified with MbtH-like protein Tcp 13"}, "[8]": {"conditions": "co-purified with MbtH-like protein Tcp 17"}, "[9]": {"conditions": "co-purified with MbtH-like protein VMbtH"}, "[10]": {"conditions": "co-purified with MbtH-like protein Tcp13"}, "[11]": {"conditions": "protein alone, without MbtH-like protein"}}}
{"substance": "Veg8_M1_A: purified adenylation domain of Veg8 module M1 (SEQ ID NO: 6), maltose binding protein fusion, His-tag; uncultured soil bacterium", "values": [{"measurement": "Formed PPi", "setting": "[1]; [7]", "result": 0.01, "unit": "mM/min/mM enzyme"}, {"measurement": "Formed PPi", "setting": "[1]; [8]", "result": 0.02, "unit": "mM/min/mM enzyme"}, {"measurement": "Formed PPi", "setting": "[1]; [9]", "result": 0.02, "unit": "mM/min/mM enzyme"}, {"measurement": "Formed PPi", "setting": "[2]; substrate L-HPG 0.1 mM, co-purified with MbtH-like protein Tcp 13", "result": 0.56, "unit": "mM/min/mM enzyme"}, {"measurement": "Formed PPi", "setting": "[2]; substrate L-HPG 0.1 mM, co-purified with MbtH-like protein Tcp 17", "result": 0.70, "unit": "mM/min/mM enzyme"}, {"measurement": "Formed PPi", "setting": "[2]; substrate L-HPG 0.1 mM, co-purified with MbtH-like protein VMbtH", "result": 0.61, "unit": "mM/min/mM enzyme"}, {"measurement": "Formed PPi", "setting": "[2]; substrate L-HPG 1 mM, co-purified with MbtH-like protein Tcp 13", "result": 0.59, "unit": "mM/min/mM enzyme"}, {"measurement": "Formed PPi", "setting": "[2]; substrate L-HPG 1 mM, co-purified with MbtH-like protein Tcp 17", "result": 0.64, "unit": "mM/min/mM enzyme"}, {"measurement": "Formed PPi", "setting": "[2]; substrate L-HPG 1 mM, co-purified with MbtH-like protein VMbtH", "result": 0.61, "unit": "mM/min/mM enzyme"}, {"measurement": "adenylation activity (absorption 360 nm, PPi release assay)", "setting": "[2]; [10]", "result": "clear adenylation activity"}, {"measurement": "adenylation activity (absorption 360 nm, PPi release assay)", "setting": "[2]; [11]", "result": "very minor adenylation activity"}, {"measurement": "adenylation activity (absorption 360 nm, PPi release assay)", "setting": "[3]; [10]", "result": "no activity"}, {"measurement": "adenylation activity (absorption 360 nm, PPi release assay)", "setting": "[3]; [11]", "result": "no activity"}, {"measurement": "adenylation activity (absorption 360 nm, PPi release assay)", "setting": "[4]; [10]", "result": "no activity"}, {"measurement": "adenylation activity (absorption 360 nm, PPi release assay)", "setting": "[4]; [11]", "result": "no activity"}, {"measurement": "Formed PPi", "setting": "[5]; substrate D-HPG 0.1 mM, co-purified with MbtH-like protein Tcp 13", "result": 0.14, "unit": "mM/min/mM enzyme"}, {"measurement": "Formed PPi", "setting": "[5]; substrate D-HPG 0.1 mM, co-purified with MbtH-like protein Tcp 17", "result": 0.17, "unit": "mM/min/mM enzyme"}, {"measurement": "Formed PPi", "setting": "[5]; substrate D-HPG 0.1 mM, co-purified with MbtH-like protein VMbtH", "result": 0.18, "unit": "mM/min/mM enzyme"}, {"measurement": "Formed PPi", "setting": "[5]; substrate D-HPG 1 mM, co-purified with MbtH-like protein Tcp 13", "result": 0.92, "unit": "mM/min/mM enzyme"}, {"measurement": "Formed PPi", "setting": "[5]; substrate D-HPG 1 mM, co-purified with MbtH-like protein Tcp 17", "result": 1.03, "unit": "mM/min/mM enzyme"}, {"measurement": "Formed PPi", "setting": "[5]; substrate D-HPG 1 mM, co-purified with MbtH-like protein VMbtH", "result": 1.39, "unit": "mM/min/mM enzyme"}, {"measurement": "adenylation activity (absorption 360 nm, PPi release assay)", "setting": "[5]; [10]", "result": "clear adenylation activity"}, {"measurement": "adenylation activity (absorption 360 nm, PPi release assay)", "setting": "[5]; [11]", "result": "no activity"}, {"measurement": "Formed PPi", "setting": "[6]; [7]", "result": 0.17, "unit": "mM/min/mM enzyme"}, {"measurement": "Formed PPi", "setting": "[6]; [8]", "result": 0.14, "unit": "mM/min/mM enzyme"}, {"measurement": "Formed PPi", "setting": "[6]; [9]", "result": 0.20, "unit": "mM/min/mM enzyme"}]}
